From patent US10450293B2, “Chemokine CXCR4 and CCR5 receptor modulators and uses related thereto” (Emory University, priority 2014, dated 2019)
Where two headings read alike, the source gives them in different places.

Tests used:
HIV-1 IIIB = assay: HIV-1 MAGI assay, IIIB (CXCR4 / T-tropic); type: cell-based
Description: (§1) Bayesian statistical models were constructed using known CXCR4 and CCR5 active compounds from literature, and these models were used to virtually screen 5 million compounds in the Aldrich Marketplace Select library. The screen yielded 14 compounds of interest that were then tested for their anti-HIV activity for both tropisms in MAGI assay. Two compounds (FIG. 1, compounds 1 and 2) were active against both T and M tropic forms of HIV with IC50 values of ˜20 μM. These initial hits were followed-up by a second round of virtual screening based on similarity and sub-structure searching. Another 24 compounds were purchased from the same database and tested. […] This compound was then subjected to a series of biological evaluations to determine activity profile and confirm mechanism of action.

HIV-1 Ba-L = assay: HIV-1 MAGI assay, Ba-L (CCR5 / M-tropic); type: cell-based; details: Human immunodeficiency virus 1, BAL
Description: as §1

[1] = molecular target: T1, HIV-1 reverse transcriptase (Human immunodeficiency virus type 1 group M subtype B, UniProt P03366); assay: biochemical; type: biochemical; details: for IC50: read-out: RT IC50
MAGI toxicity = details: human, MAGI cells, TC50, table of synthesized compounds
CXCR4 [2] = molecular target: T2, CXCR4 (Homo sapiens, UniProt P61073); assay: Nef-M1:CXCR4 induced mitochondrial membrane depolarization (MMD) inhibition in Jurkat cells; type: cell-based; set-up: endogenous in cells; host or cells: Jurkat; details: in words
T2 sequence (P61073 whole entry): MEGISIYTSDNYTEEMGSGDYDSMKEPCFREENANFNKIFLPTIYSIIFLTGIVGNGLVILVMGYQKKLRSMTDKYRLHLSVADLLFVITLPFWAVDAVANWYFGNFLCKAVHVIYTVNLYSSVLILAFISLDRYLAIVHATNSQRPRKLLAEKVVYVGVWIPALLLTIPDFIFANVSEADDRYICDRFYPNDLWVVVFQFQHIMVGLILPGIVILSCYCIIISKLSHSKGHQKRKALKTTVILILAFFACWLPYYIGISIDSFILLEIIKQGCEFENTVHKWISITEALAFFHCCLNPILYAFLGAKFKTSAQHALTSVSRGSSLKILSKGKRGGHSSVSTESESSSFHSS

[3] = molecular target: T1, HIV-1 reverse transcriptase; assay: STD-NMR binding epitope study, HIV-1 reverse transcriptase; details: 1 mM compound, 30 ng/ml HIV reverse transcriptase
Description: (§2) Saturation Transfer Difference Spectroscopy (STD) was used to study the interactions between m7CCR5, HIV-1 reverse transcriptase, CXCR4, and compound 2 disclosed herein. Brandt et al., J Biol Chem. 2002, 277(19):17291-9. […] An on-resonance spectrum is recorded where m7CCR5 is selectively saturated giving rise to compound signals intensities.
(§3) The difference of off-resonance from the on-resonance spectrum results in the STD spectrum indicating proton that are in close contact to the protein surface. Non-binding protons cancelled out. The signal intensities can be quantified indicating the relative distance of the proton. Normalizing the measured STD intensities against the most intense can be expressed as percentages.
Spectra were collected on a 600 MHz Varian equipped with a triple-resonance cryoprobe, and STD spectra were collected with 512 scans at an on-resonance frequency of +0.5 ppm. Panel a) is a ^1H NMR spectrum of compound 2 in 100% deuterated phosphate buffered saline (PBS, pH=7.4). b) STD NMR spectrum of compound 2 in PBS in the absence of protein. c) STD NMR spectrum of 1 mM compound 2 in the presence of 30 ng/ml HIV reverse transcriptase (CalBioChem). d) Binding epitope of compound 2 binding to HIV-RT obtained by integrating the signals from (c).

m7CCR5 = assay: STD-NMR binding epitope study, m7CCR5; details: 1 mM compound, 10 μM m7CCR5
Description: as §2, §3
STD binding epitope studies of compound 2 interacting with m7CCR5 (isolated, bacterially-expressed CCR5 construct) is shown in FIG. 2B. […] 100 mM HEPES, 150 mM NaCl, pH=7) in the absence of protein. c) STD NMR spectrum of 1 mM compound 2 in the presence of 10 μM m7CCR5 resolubilized in DDM/DOPC bicelle buffer. d) STDD spectrum of compound 2 binding to m7CCR5 obtained by subtracting (b) from (c). e) STDD binding epitope of compound 2 complexed to m7CCR5 obtained by integrating signals from (d).

CXCR4 [4] = molecular target: T2, CXCR4; assay: STD-NMR binding epitope study, CXCR4 in CHO membrane extracts; details: 1 mM compound, 30% CXCR4-expressing CHO membrane extracts
Description: as §2, §3
STD binding epitope studes of compound 2 interacting with CXCR4 obtained from Chinese Hamster Ovary (CHO) membrane extracts as shown in FIG. 2C.

CCR5 = molecular target: T3, CCR5 (Homo sapiens, UniProt P51681); assay: HeLa-C14:JRFL CD4-dependent cell-cell fusion assay; type: cell-based; details: luciferase readout, in words
T3 construct: expressed in transfected cells; host or cells: HeLa-C14
T3 sequence (P51681 whole entry, the tested form may be a part): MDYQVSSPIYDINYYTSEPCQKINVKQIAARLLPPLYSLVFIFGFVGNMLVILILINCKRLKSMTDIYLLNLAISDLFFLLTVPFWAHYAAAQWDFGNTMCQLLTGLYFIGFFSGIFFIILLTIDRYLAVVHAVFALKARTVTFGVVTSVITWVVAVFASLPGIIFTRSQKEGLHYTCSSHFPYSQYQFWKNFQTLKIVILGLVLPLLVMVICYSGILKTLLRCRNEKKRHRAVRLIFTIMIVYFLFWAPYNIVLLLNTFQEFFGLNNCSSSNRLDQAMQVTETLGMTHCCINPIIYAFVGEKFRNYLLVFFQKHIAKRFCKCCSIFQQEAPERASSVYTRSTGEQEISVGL
Source text: Cell-cell fusion assays measure specifically co-receptor mediated inhibition of gp120-induced fusion in the absence of other viral machinery, and these assays were used to explore the CCR5- and CXCR4-specific antiviral activity. A cell-cell fusion assay was constructed to simulate HIV-1 entry in the absence of other viral machinery. The assay measured fusion of effector cells expressing the JRFL envelope (CCR5-tropic/CD4 dependent) with HeLa-C14 target cells (expressing CD4, CCR5, and CXCR4) using a luciferase readout (FIG. 5A).

[5] = tested on: NNRTI-resistant viral strain containing the K103N/Y181C mutations; type: cell-based
[6] = Human immunodeficiency virus 1, IIIB, MAGI, Table 3, read-out: MAGI Assay IC50 CXCR4
[7] = Table 3, read-out: MAGI Assay IC50 CCR5
[8] = Human immunodeficiency virus 1, IIIB, MAGI, table of synthesized compounds, read-out: X4-IC50
[9] = table of synthesized compounds, read-out: R5-IC50
[10] = Human immunodeficiency virus 1, IIIB, MAGI, value stated for both tropisms, read-out: IC50 against T tropic HIV in MAGI assay
[11] = MAGI, value stated for both tropisms, read-out: IC50 against M tropic HIV in MAGI assay

IC50 (HIV-1 IIIB; [8]) [µM]	IC50 (HIV-1 Ba-L; [9]) [µM]	Compound	IC50 (HIV-1 IIIB; [6]) [µM]	IC50 (HIV-1 Ba-L; [7]) [µM]	IC50 ([1]; Table 3) [µM]	CC50 (MAGI toxicity) [µM]	also measured
–	–	Fc1cc(CN2CCC(c3[nH]ncc3Cc3ccccc3)CC2)ccn1	> 10	10	10	–	–
–	–	CS(=O)(=O)c1cc(CN2CCC(c3[nH]ncc3Cc3ccccc3)CC2)ccn1	0.4	0.6	4	–	–
–	–	c1ccc(Cc2cn[nH]c2C2CCN(Cc3ccncn3)CC2)cc1	> 100	20	146	–	–
–	–	N#Cc1ccc(CN2CCC(c3[nH]ncc3Cc3ccccc3)CC2)nc1	> 100	43	211	–	–
–	–	CN(C)c1ccc(CN2CCC(c3[nH]ncc3Cc3ccccc3)CC2)cc1	–	5	–	–	MAGI Assay IC50 CXCR4 (HIV-1 IIIB; Table 3): inactive; RT IC50 ([1]; Table 3): inactive
–	–	COc1cccc(CN2CCC(c3[nH]ncc3Cc3ccccc3)CC2)c1Cl	2	1	1.5	–	–
–	–	c1ccc(Cc2cn[nH]c2C2CCN(Cc3ccnc4ccccc34)CC2)cc1	1	0.8	3	–	–
–	–	Clc1nccc(CN2CCC(c3[nH]ncc3Cc3ccccc3)CC2)c1Cl	1.5	0.8	4	–	–
–	–	[O-][n+]1ccc(CN2CCC(c3[nH]ncc3Cc3ccccc3)CC2)cc1	> 100	> 100	> 100	–	–
–	–	Cc1n[nH]c(C2CCN(Cc3ccncc3Cl)CC2)c1Cc1ccccc1	–	–	–	–	inhibition at 1 µM (HIV-1 IIIB; Human immunodeficiency virus 1, IIIB, MAGI, @ 1 uM, read-out: MAGI Assay % inhib CXCR4): 79%; inhibition at 1 µM (HIV-1 Ba-L; @ 1 uM, read-out: MAGI Assay % inhib CCR5): 92%; activity at 100 µM ([1]; @ 100 uM, read-out: % Activity of RT): 4%
137	73.5	c1ccc(CCCC2CCN(Cc3ccccn3)CC2)cc1	–	–	–	> 100	–
13	18.1	c1ccc(Cc2cn[nH]c2C2CCN(Cc3ccccc3)CC2)cc1 [1-benzyl-4-(4-benzyl-1H-pyrazol-3-yl)piperidine]	–	–	–	> 100	–
24.8	16.7	c1ccc(Cc2cn[nH]c2C2CCN(Cc3ccccn3)CC2)cc1 [2-((4-(4-benzyl-1H-pyrazol-3-yl)piperidin-1-yl)methyl)pyridine]	–	–	–	> 100	–
13.2	9.72	FC(F)(F)c1ccc(CN2CCC(c3[nH]ncc3Cc3ccccc3)CC2)cc1 [4-(4-benzyl-1H-pyrazol-3-yl)-1-(4 (trifluoromethyl)benzyl)piperidine]	–	–	–	18	–
1	2	CS(=O)(=O)c1ccc(CN2CCC(c3[nH]ncc3Cc3ccccc3)CC2)cc1 [4-(4-benzyl-1H-pyrazol-3-yl)-1-(4-(methylsulfonyl)benzyl)piperidine]	–	–	–	> 100	–
5.33	5.61	Clc1ccc(CN2CCC(c3[nH]ncc3Cc3ccccc3)CC2)cc1 [4-(4-benzyl-1H-pyrazol-3-yl)-1-(4-chlorobenzyl)piperidine]	–	–	–	18.6	–
58.5	49.4	c1ccc(Cc2cn[nH]c2C2CCN(CC3CCCCC3)CC2)cc1 [4-(4-benzyl-1H-pyrazol-3-yl)-1-(cyclohexylmethyl)piperidine]	–	–	–	142	–
5.3	8.52	N#Cc1ccc(CN2CCC(c3[nH]ncc3Cc3ccccc3)CC2)cc1 [4-((4-(4-benzyl-1H-pyrazol-3-yl)piperidin-1-yl)methyl)benzonitrile]	–	–	–	60	–
–	–	c1cc(CN2CCCNCCNCCCNCC2)ccc1CN1CCCNCCNCCCNCC1 [AMD3100]	–	–	–	–	inhibition of Nef-M1 induced MMD (CXCR4 [2]): inhibited
–	–	Cc1cn([C@H]2C[C@H](N=[N+]=[N-])[C@@H](CO)O2)c(=O)[nH]c1=O [AZT]	–	–	–	–	inhibition of Nef-M1 induced MMD (CXCR4 [2]): inactive
–	–	Clc1ccc(Cc2nc(CN3CCN(Cc4ccccn4)CC3)cs2)cc1 [Compound 1]	–	–	–	–	IC50 (HIV-1 IIIB; [10]): ~20 µM; IC50 (HIV-1 Ba-L; [11]): ~20 µM
–	–	c1ccc(Cc2c[nH]nc2C2CCN(Cc3ccccn3)CC2)cc1 [Compound 2]	–	–	–	–	IC50 (HIV-1 IIIB; [10]): ~20 µM; IC50 (HIV-1 Ba-L; [11]): ~20 µM; interaction with HIV-1 reverse transcriptase (STD NMR) [3]: interacts; interaction with m7CCR5 (STD NMR) (m7CCR5): interacts; interaction with CXCR4 (STD NMR) (CXCR4 [4]): interacts
–	–	Cc1ccc(-c2ccc3c(c2)C=C(C(=O)Nc2ccc(C[N+](C)(C)C4CCOCC4)cc2)CCC3)cc1.[Cl-] [TAK-779, reference compound]	–	–	–	–	inhibition of JRFL envelope / HeLa-C14 cell-cell fusion (CCR5): inhibited fusion
–	–	Clc1cnccc1CN1CCC(c2[nH]ncc2Cc2ccccc2)CC1 [drawing 40]	0.1	0.2	10	–	–
–	–	Clc1cc(CN2CCC(c3[nH]ncc3Cc3ccccc3)CC2)ccn1 [drawing 41]	0.2	0.3	10	–	–
–	–	c1ccc(Cc2cn[nH]c2C2CCN(Cc3cccc4ccccc34)CC2)cc1 [drawing 49]	7	8	20	–	–
–	–	c1ccc(Cc2cn[nH]c2C2CCN(Cc3ccc4ccccc4c3)CC2)cc1 [drawing 50]	4	4	23	–	–
–	–	O=C1Nc2ccc(Cl)cc2[C@@](C#CC2CC2)(C(F)(F)F)O1 [efavirenz]	–	–	–	–	loss of antiviral activity against K103N/Y181C mutant compared to wild type [5]: 70 fold
–	–	maraviroc	–	–	–	–	inhibition of Nef-M1 induced MMD (CXCR4 [2]): inactive

Compound	IC50 (HIV-1 IIIB; [8]) [µM]	IC50 (HIV-1 Ba-L; [9]) [µM]	IC50 (HIV-1 IIIB; [6]) [µM]	IC50 (HIV-1 Ba-L; [7]) [µM]	IC50 ([1]; Table 3) [µM]	CC50 (MAGI toxicity) [µM]	also measured
c1ccc(Cc2cn[nH]c2C2CCN(Cc3ccc4ccccc4c3)CC2)cc1 [drawing 85, 4-(4-benzyl-1H-pyrazol-3-yl)-1-(naphthalen-2-ylmethyl)piperidine]	4.03	4.47	–	–	–	16.8	–
c1ccc(Cc2cn[nH]c2C2CCN(Cc3cccc4ccccc34)CC2)cc1 [drawing 86, 4-(4-benzyl-1H-pyrazol-3-yl)-1-(naphthalen-1-ylmethyl)piperidine]	6.79	7.63	–	–	–	17.9	–
Clc1cnccc1CN1CCC(c2[nH]ncc2Cc2ccccc2)CC1 [drawing 92, 4-((4-(4-benzyl-1H-pyrazol-3-yl)piperidin-1-yl)methyl)-3-chloropyridine]	0.21	0.14	–	–	–	67	–
Clc1cc(CN2CCC(c3[nH]ncc3Cc3ccccc3)CC2)ccn1 [drawing 93, 4-((4-(4-benzyl-1H-pyrazol-3-yl)piperidin-1-yl)methyl)-2-chloropyridine]	0.28	0.17	–	–	–	34	–
